Source: publication PMC11968843, “Sulphostin-inspired N-phosphonopiperidones as selective covalent DPP8 and DPP9 inhibitors” (Nature Communications, 2025)
Several values for one entry are separate records, joined by “and”; a condition that tells them apart may be missing. Equal values may be shown once. Entries after “also recorded” stand apart in the source; their conditions may differ.

Tests used:
HeLa wild-type cells [1] = experiment: Cell viability assay (MTT), co-treatment with Mitomycin C; type: cell-based; conditions: for cell viability normalized for each condition seperately to corresponsing [-MMC +inhibitor] control: +MMC co-treatment, individual replicate values (Supplementary Figure 11b)
Protocol: (§1) HeLa wild-type (HeLa Flp-In T-REx WT, kind gift from Prof. Matthias Hentze) and HeLa DPP9^KO cells (prepared in-house) were cultured in DMEM (ThermoFisher, USA) supplemented with 10% FBS (PAN Biotech, Germany), 2 mM L-Glutamin (ThermoFisher, USA) and 1% Penicillin/Streptomycin (100 U mL^−1 Penicillin and 100 µg mL^−1 Streptomycin, ThermoFisher, USA). Cells were seeded in 96-well flat-bottom cell culture plates (Greiner, Germany) at a concentration of 5 × 10^3 cells per well (37 °C and 5% CO2). The indicated concentration of Mitomycin C (MMC, Merck) was added to the cells 24 h after seeding, together with 10 µM of the indicated inhibitor. The inhibitors were refreshed every 24 h. Control cells were treated with DMSO.
(§2) Cell viability was measured 72 hours after the MMC treatment. For this, the medium was removed and replaced with phenol-red free DMEM (ThermoFisher, USA) containing 0.5 mg mL^−1 MTT (Sigma Aldrich, USA). Cells were incubated for 30 min at 37 °C, 5% CO2. Subsequently, the medium was removed and replaced by DMSO. The plates were shaken on an orbital shaker for 20 min before measuring the MTT signal on a CARIOstar Plus microplate reader (BMT labtech, Germany). Each experiment was performed three times, each in triplicates.

HeLa wild-type cells [2] = experiment: Cell viability assay (MTT), inhibitor alone; type: cell-based; conditions: for Cell viability normalized to mock treated cells + 0 µM MMC: individual replicate values (Supplementary Figure 11a); for 95% confidence interval of difference: Figure 5d S11a, Ctrl. [-MMC] vs. compound [-MMC], Tukey's multiple comparisons test
Protocol: as §1, §2

[3] = target: T1, HEK293 cell lysates (proteome-wide targets of probe 9) (Homo sapiens, UniProt P14174); experiment: Competitive ABPP / direct target identification with alkyne probe 9 in HEK293 cell lysates; type: binding, H. sapiens; conditions: protein MIF
T1 construct: endogenous in cells; host or cells: HEK293 cell lysate

[4] = target: T2, HEK293 cell lysates (proteome-wide targets of probe 9) (Homo sapiens, UniProt Q99832); experiment: as above; type: binding, H. sapiens; conditions: protein CCT7
T2 construct: endogenous in cells; host or cells: HEK293 cell lysate

[5] = target: T3, HEK293 cell lysates (proteome-wide targets of probe 9) (Homo sapiens, UniProt P37837); experiment: as above; type: binding, H. sapiens; conditions: protein TALDO1
T3 construct: endogenous in cells; host or cells: HEK293 cell lysate

[6] = target: T4, HEK293 cell lysates (proteome-wide targets of probe 9) (Homo sapiens, UniProt P10809); experiment: as above; type: binding, H. sapiens; conditions: protein HSPD1
T4 construct: endogenous in cells; host or cells: HEK293 cell lysate

[7] = target: T5, HEK293 cell lysates (proteome-wide targets of probe 9) (Homo sapiens, UniProt Q8NC51); experiment: as above; type: binding, H. sapiens; conditions: protein SERBP1
T5 construct: endogenous in cells; host or cells: HEK293 cell lysate

[8] = target: T6, HEK293 cell lysates (proteome-wide targets of probe 9) (Homo sapiens, UniProt P68363); experiment: as above; type: binding, H. sapiens; conditions: protein TUBA1B
T6 construct: endogenous in cells; host or cells: HEK293 cell lysate

[9] = target: T7, HEK293 cell lysates (proteome-wide targets of probe 9) (Homo sapiens, UniProt P07737); experiment: as above; type: binding, H. sapiens; conditions: protein PFN1
T7 construct: endogenous in cells; host or cells: HEK293 cell lysate

[10] = target: T8, HEK293 cell lysates (proteome-wide targets of probe 9) (Homo sapiens, UniProt P62826); experiment: as above; type: binding, H. sapiens; conditions: protein RAN
T8 construct: endogenous in cells; host or cells: HEK293 cell lysate

[11] = target: T9, HEK293 cell lysates (proteome-wide targets of probe 9) (Homo sapiens, UniProt P05387); experiment: as above; type: binding, H. sapiens; conditions: protein RPLP2
T9 construct: endogenous in cells; host or cells: HEK293 cell lysate

[12] = target: T10, HEK293 cell lysates (proteome-wide targets of probe 9) (Homo sapiens, UniProt P50914); experiment: as above; type: binding, H. sapiens; conditions: protein RPL14
T10 construct: endogenous in cells; host or cells: HEK293 cell lysate

[13] = target: T11, HEK293 cell lysates (proteome-wide targets of probe 9) (Homo sapiens, UniProt P63261); experiment: as above; type: binding, H. sapiens; conditions: protein ACTG1
T11 construct: endogenous in cells; host or cells: HEK293 cell lysate

[14] = target: T12, HEK293 cell lysates (proteome-wide targets of probe 9) (Homo sapiens, UniProt P59998); experiment: as above; type: binding, H. sapiens; conditions: protein ARPC4
T12 construct: endogenous in cells; host or cells: HEK293 cell lysate

[15] = target: T13, HEK293 cell lysates (proteome-wide targets of probe 9) (Homo sapiens, UniProt P11142); experiment: as above; type: binding, H. sapiens; conditions: protein HSPA8
T13 construct: endogenous in cells; host or cells: HEK293 cell lysate

[16] = target: T14, HEK293 cell lysates (proteome-wide targets of probe 9) (Homo sapiens, UniProt P26373); experiment: as above; type: binding, H. sapiens; conditions: protein RPL13
T14 construct: endogenous in cells; host or cells: HEK293 cell lysate

[17] = target: T15, HEK293 cell lysates (proteome-wide targets of probe 9) (Homo sapiens, UniProt P07900); experiment: as above; type: binding, H. sapiens; conditions: protein HSP90AA1
T15 construct: endogenous in cells; host or cells: HEK293 cell lysate

[18] = target: T16, HEK293 cell lysates (proteome-wide targets of probe 9) (Homo sapiens, UniProt P48147); experiment: as above; type: binding, H. sapiens; conditions: protein PREP (Prolyl endopeptidase)
T16 construct: endogenous in cells; host or cells: HEK293 cell lysate

[19] = target: T17, HEK293 cell lysates (proteome-wide targets of probe 9) (Homo sapiens, UniProt P12277); experiment: as above; type: binding, H. sapiens; conditions: protein CKB
T17 construct: endogenous in cells; host or cells: HEK293 cell lysate

[20] = target: T18, HEK293 cell lysates (proteome-wide targets of probe 9) (Homo sapiens, UniProt O60506); experiment: as above; type: binding, H. sapiens; conditions: protein SYNCRIP
T18 construct: endogenous in cells; host or cells: HEK293 cell lysate

[21] = target: T19, HEK293 cell lysates (proteome-wide targets of probe 9) (Homo sapiens, UniProt P07814); experiment: as above; type: binding, H. sapiens; conditions: protein EPRS
T19 construct: endogenous in cells; host or cells: HEK293 cell lysate

[22] = target: T20, HEK293 cell lysates (proteome-wide targets of probe 9) (Homo sapiens, UniProt P07195); experiment: as above; type: binding, H. sapiens; conditions: protein LDHB
T20 construct: endogenous in cells; host or cells: HEK293 cell lysate

[23] = target: T21, HEK293 cell lysates (proteome-wide targets of probe 9) (Homo sapiens, UniProt P31948); experiment: as above; type: binding, H. sapiens; conditions: protein STIP1
T21 construct: endogenous in cells; host or cells: HEK293 cell lysate

[24] = target: T22, HEK293 cell lysates (proteome-wide targets of probe 9) (Homo sapiens, UniProt O00295); experiment: as above; type: binding, H. sapiens; conditions: protein TULP2
T22 construct: endogenous in cells; host or cells: HEK293 cell lysate

[25] = target: T23, HEK293 cell lysates (proteome-wide targets of probe 9) (Homo sapiens, UniProt P29401); experiment: as above; type: binding, H. sapiens; conditions: protein TKT
T23 construct: endogenous in cells; host or cells: HEK293 cell lysate

[26] = Figure 5d S11a, + Ctrl. [+MMC] vs. compound [+MMC], Tukey's multiple comparisons test
[27] = Figure S11b, Ctrl. vs. compound, Uncorrected Fisher's LSD

With `CCCCCCP(=O)(OCC)N1CCC[C@H](N)C1=O` (stereo partly shown) [Compound 5] the “cell viability normalized for each condition seperately to corresponsing [-MMC +inhibitor] control” value (HeLa wild-type cells [1]) was 58.346% and 64.1242% and 71.7486% and 57.5023% and 82.3895% and 73.7368% and 74.46% and 78.7587% and 61.0935%, the “95% confidence interval of difference” value (HeLa wild-type cells [1]; [26]) was -9,959 to 11,24 and the “95% confidence interval of difference” value (HeLa wild-type cells [1]; [27]) was -11,45 to 2,173. For the same compound, the “Cell viability normalized to mock treated cells + 0 µM MMC” value (HeLa wild-type cells [2]) was 95.9127% and 99.5028% and 95.7865% and 114.42% and 79.6662% and 94.1915% and 91.8119% and 83.2505% and 91.8375% and the “95% confidence interval of difference” value (HeLa wild-type cells [2]) was -2,823 to 18,38.
For `CCCCCc1ccc(SCCP(=O)(OCC)N2CCC[C@H](N)C2=O)cc1.O=C(O)C(F)(F)F` (stereo partly shown) [Compound 16], the “cell viability normalized for each condition seperately to corresponsing [-MMC +inhibitor] control” value (HeLa wild-type cells [1]) was 56.5022% and 55.2183% and 55.934% and 53.6658% and 54.9944% and 49.1952% and 50.7013% and 59.4169% and 66.1488%, the “95% confidence interval of difference” value (HeLa wild-type cells [1]; [26]) was 1,107 to 22,31 and the “95% confidence interval of difference” value (HeLa wild-type cells [1]; [27]) was 1,930 to 15,55. For the same compound, the “effect on cell viability / sensitivity to MMC” value (HeLa wild-type cells [1]; HeLa wild-type, 1 µM MMC + 10 µM inhibitor, 72 h) was “increase in the sensitivity of cells to genotoxic stress; also recorded: clearly increased the sensitivity of cells to MMC”, the “Cell viability normalized to mock treated cells + 0 µM MMC” value (HeLa wild-type cells [2]) was 97.3681% and 98.2989% and 98.3512% and 104.946% and 88.3417% and 98.5541% and 95.4309% and 92.3469% and 88.9994% and the “95% confidence interval of difference” value (HeLa wild-type cells [2]) was -4,629 to 16,57. The “effect on cell viability without MMC” value (HeLa wild-type cells [2]; HeLa wild-type, 10 µM, 72 h) was “not toxic to cells; also recorded: did not show cytotoxic effects”, the “Log2-fold change (16/9)” value [3] was -0.05345 and the “Log2-fold change (16/9)” value [4] was -1.548. The “Log2-fold change (16/9)” value [5] was 0.1822, the “Log2-fold change (16/9)” value [6] was 0.04221 and the “Log2-fold change (16/9)” value [7] was -1.208. For the same compound, the “Log2-fold change (16/9)” value [8] was -1.967, the “Log2-fold change (16/9)” value [9] was -2.001 and the “Log2-fold change (16/9)” value [10] was -1.91. The “Log2-fold change (16/9)” value [11] was -0.0326, the “Log2-fold change (16/9)” value [12] was -1.54 and the “Log2-fold change (16/9)” value [13] was -0.3964. For the same compound, the “Log2-fold change (16/9)” value [14] was -0.1373, the “Log2-fold change (16/9)” value [15] was -0.08018 and the “Log2-fold change (16/9)” value [16] was -0.8436. The “Log2-fold change (16/9)” value [17] was -0.09553, the “Log2-fold change (16/9)” value [18] was -0.8405 and the “Log2-fold change (16/9)” value [19] was -0.7041. For the same compound, the “Log2-fold change (16/9)” value [20] was -1.04, the “Log2-fold change (16/9)” value [21] was -0.09528 and the “Log2-fold change (16/9)” value [22] was 0.1493. For the same compound, the “Log2-fold change (16/9)” value [23] was -0.3266, the “Log2-fold change (16/9)” value [24] was 0.6272 and the “Log2-fold change (16/9)” value [25] was 1.379.
In the case of `C#CCCCP(=O)(OCC)N1CCCC(N)C1=O.O=C(O)C(F)(F)F` (mixture of isomers) [Compound 9], the “Log2-fold change (9/DMSO)” value [3] is reported as 2.233, the “Log2-fold change (9/DMSO)” value [4] is reported as -0.08905 and the “Log2-fold change (9/DMSO)” value [5] is reported as 0.3993. The “Log2-fold change (9/DMSO)” value [6] was -1.284, the “Log2-fold change (9/DMSO)” value [7] was -0.5195 and the “Log2-fold change (9/DMSO)” value [8] was 0.8793. The “Log2-fold change (9/DMSO)” value [9] was 0.6639, the “Log2-fold change (9/DMSO)” value [10] was 0.5658 and the “Log2-fold change (9/DMSO)” value [11] was 0.606. For the same compound, the “Log2-fold change (9/DMSO)” value [12] was 0.6133, the “Log2-fold change (9/DMSO)” value [13] was 0.5764 and the “Log2-fold change (9/DMSO)” value [14] was -0.5289. The “Log2-fold change (9/DMSO)” value [15] was 0.1798, the “Log2-fold change (9/DMSO)” value [16] was 1.809 and the “Log2-fold change (9/DMSO)” value [17] was -0.06179. The “Log2-fold change (9/DMSO)” value [18] was 4.8, the “Log2-fold change (9/DMSO)” value [19] was 0.9157 and the “Log2-fold change (9/DMSO)” value [20] was 0.3304. The “Log2-fold change (9/DMSO)” value [21] was 0.7172, the “Log2-fold change (9/DMSO)” value [22] was 0.03494 and the “Log2-fold change (9/DMSO)” value [23] was 1.191. For the same compound, the “Log2-fold change (9/DMSO)” value [24] was -0.1649 and the “Log2-fold change (9/DMSO)” value [25] was -1.0711.
